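These data come from cells grown in 96-well plates and exposed to compound for 48 hours at five concentrations. GI50 marks 50% less growth. At the TGI there is no net growth.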
How the values were obtained:
Experiment in all cases: inhibition of tumour cell growth, NCI panel, 48 h
[1] = test system: 786-0 renal
[2] = test system: A498 renal
[3] = test system: A549 NSCLC
[4] = test system: ACHN renal
[5] = test system: BT-549 breast
[6] = test system: CAKI-1 renal
[7] = test system: CCRF-CEM leukemia
[8] = test system: COLO 205 colon
[9] = test system: DU-145 prostate
[10] = test system: EKVX NSCLC
[11] = test system: HCC-2998 colon
[12] = test system: HCT-116 colon
[13] = test system: HCT-15 colon
[14] = test system: HL-60(TB) leukemia
[15] = test system: HOP-62 NSCLC
[16] = test system: HOP-92 NSCLC
[17] = test system: HS 578T breast
[18] = test system: HT29 colon
[19] = test system: IGROV1 ovarian
[20] = test system: K-562 leukemia
[21] = test system: KM12 colon
[22] = test system: LOX IMVI melanoma
[23] = test system: M14 melanoma
[24] = test system: MALME-3M melanoma
[25] = test system: MCF7 breast
[26] = test system: MDA-MB-231 breast
[27] = test system: MDA-MB-435
[28] = test system: MDA-MB-468 breast
[29] = test system: MOLT-4 leukemia
[30] = test system: NCI-H226 lung
[31] = test system: NCI-H23 lung
[32] = test system: NCI-H460 lung
[33] = test system: NCI-H522 lung
[34] = test system: NCI/ADR-RES ovarian
[35] = test system: OVCAR-3 ovarian
[36] = test system: OVCAR-4 ovarian
[37] = test system: OVCAR-5 ovarian
[38] = test system: OVCAR-8 ovarian
[39] = test system: PC-3 prostate
[40] = test system: RPMI-8226 leukemia
[41] = test system: RXF 393 renal
[42] = test system: SF-268 CNS
[43] = test system: SF-295 CNS
[44] = test system: SF-539 CNS
[45] = test system: SK-MEL-2 melanoma
[46] = test system: SK-MEL-28 melanoma
[47] = test system: SK-MEL-5 melanoma
[48] = test system: SK-OV-3 ovarian
[49] = test system: SN12C renal
[50] = test system: SNB-19 CNS
[51] = test system: SNB-75 CNS
[52] = test system: SR leukemia
[53] = test system: SW-620 colon
[54] = test system: T-47D breast
[55] = test system: TK-10 renal
[56] = test system: U251 CNS
[57] = test system: UACC-257 melanoma
[58] = test system: UACC-62 melanoma
[59] = test system: UO-31 renal

With `CCC(C)S(=O)(=O)c1oc(-c2ccc(C)cc2)nc1S(=O)(=O)c1ccccc1` (stereo not drawn) the GI50 [1] was 1.67 µM, the TGI [1] was 3.37 µM and the GI50 [2] was 16.9 µM. It also gave a TGI [2] of 30.7 µM, a GI50 [3] of 13.5 µM and a TGI [3] of 32.3 µM. It also gave a GI50 [4] of 1.65 µM, a TGI [4] of 3.01 µM and a GI50 [5] of 1.81 µM. For the same compound, the TGI [5] was 3.42 µM, the GI50 [6] was 1.53 µM and the TGI [6] was 3.15 µM. For the same compound, the GI50 [7] was 0.287 µM, the TGI [7] was 1.33 µM and the GI50 [8] was 2.67 µM. The TGI [8] was 6.02 µM, the GI50 [9] was 1.98 µM and the TGI [9] was 4.57 µM. For the same compound, the GI50 [10] was 1.98 µM, the TGI [10] was 4.21 µM and the GI50 [11] was 1.74 µM. For the same compound, the TGI [11] was 3.3 µM, the GI50 [12] was 1.52 µM and the TGI [12] was 3.62 µM. For the same compound, the GI50 [13] was 1.45 µM, the TGI [13] was 3.18 µM and the GI50 [14] was 1.6 µM. The TGI [14] was 4.91 µM, the GI50 [15] was 15.8 µM and the TGI [15] was 33.2 µM. It also gave a GI50 [16] of 2.27 µM, a TGI [16] of 6.37 µM and a GI50 [17] of 2.18 µM. For the same compound, the TGI [17] was 7.36 µM, the GI50 [18] was 2.04 µM and the TGI [18] was 4.86 µM. The GI50 [19] was 1.96 µM, the TGI [19] was 3.75 µM and the GI50 [20] was 1.38 µM. For the same compound, the TGI [20] was greater than 100 µM, the GI50 [21] was 8.37 µM and the TGI [21] was 23.4 µM. The GI50 [22] was 1.23 µM, the TGI [22] was 2.58 µM and the GI50 [23] was 1.73 µM. For the same compound, the TGI [23] was 3.83 µM, the GI50 [24] was 1.65 µM and the TGI [24] was 3.03 µM. For the same compound, the GI50 [25] was 1.2 µM, the TGI [25] was 2.86 µM and the GI50 [26] was 1.66 µM. The TGI [26] was 3.15 µM, the GI50 [27] was 1.74 µM and the TGI [27] was 3.85 µM. For the same compound, the GI50 [28] was 1.43 µM, the TGI [28] was 2.99 µM and the GI50 [29] was 1.45 µM. It also gave a TGI [29] greater than 100 µM, a GI50 [30] of 12.5 µM and a TGI [30] of 30.5 µM. It also gave a GI50 [31] of 1.76 µM, a TGI [31] of 3.55 µM and a GI50 [32] of 3.13 µM. For the same compound, the TGI [32] was 12.1 µM, the GI50 [33] was 1.31 µM and the TGI [33] was 2.77 µM. It also gave a GI50 [34] of 2.35 µM, a TGI [34] of 5.7 µM and a GI50 [35] of 1.63 µM. For the same compound, the TGI [35] was 3.23 µM, the GI50 [36] was 2.67 µM and the TGI [36] was 7.84 µM. For the same compound, the GI50 [37] was 2.83 µM, the TGI [37] was 9.59 µM and the GI50 [38] was 3.09 µM. For the same compound, the TGI [38] was 10.7 µM, the GI50 [39] was 3.14 µM and the TGI [39] was 11.2 µM. The GI50 [40] was 2.16 µM, the TGI [40] was 8.17 µM and the GI50 [41] was 1.48 µM. It also gave a TGI [41] of 3.1 µM, a GI50 [42] of 2.65 µM and a TGI [42] of 8.81 µM. It also gave a GI50 [43] of 11.3 µM, a TGI [43] of 23.4 µM and a GI50 [44] of 1.67 µM. The TGI [44] was 3.03 µM, the GI50 [45] was 4.1 µM and the TGI [45] was 16.2 µM. It also gave a GI50 [46] of 1.71 µM, a TGI [46] of 3.14 µM and a GI50 [47] of 2.99 µM. It also gave a TGI [47] of 11.6 µM, a GI50 [48] of 17.2 µM and a TGI [48] of 33.3 µM. The GI50 [49] was 1.72 µM, the TGI [49] was 3.34 µM and the GI50 [50] was 12.9 µM. It also gave a TGI [50] of 25.5 µM, a GI50 [51] of 3.86 µM and a TGI [51] of 17 µM. It also gave a GI50 [52] of 2.73 µM, a TGI [52] greater than 100 µM and a GI50 [53] of 1.13 µM. The TGI [53] was 2.47 µM, the GI50 [54] was 1.87 µM and the TGI [54] was 4.41 µM. It also gave a GI50 [55] of 1.73 µM, a TGI [55] of 3.44 µM and a GI50 [56] of 15.5 µM. For the same compound, the TGI [56] was 31.2 µM, the GI50 [57] was 1.89 µM and the TGI [57] was 4.24 µM. It also gave a GI50 [58] of 1.76 µM, a TGI [58] of 3.75 µM and a GI50 [59] of 1.52 µM. It also gave a TGI [59] of 2.85 µM.
